Measured values reported in patent publication US12382888B2, “Compositions and methods for modulating immunity in plants” (Boyce Thompson Institute for Plant Research, Inc., priority 2013, dated 2025).
“Also recorded” adds a separate entry of the source.

System: Turnip Crinkle Virus (TCV)
Test: Resistance of Arabidopsis to Turnip Crinkle Virus (coat protein immunoblot, symptoms)
Assay type: in vivo
Details: root pretreatment 1 μM

## CC1O[C@@H](O[C@@H](C)CCCCCCCCC(=O)O)C(O)C[C@H]1O (stereo in doubt) [ascr #18, (10R)-(3′R,5′R-dihydroxy-6′S-methyl-(2H)-tetrahydropyran-2-yloxy)-undecanoic Acid]
  resistance to virulent TCV: dramatically enhanced resistance; also recorded: enhanced basal resistance
6 dpi
  disease symptoms (chlorosis, lesions, suppression of inflorescent development): greatly reduced
Distal leaves
  systemic spread of the virus: largely abolished
Inoculated and distal leaves, immune blot
  viral replication (amount of viral coat protein): greatly reduced
